Patent US9499585B2, “Bioactive peptide complexes” (priority 2012, dated 2016)
No end group written: not given here.

How the values were obtained:
[1] = Zn^++ ion binding with A1 peptide by light-scattering method; assay type: physicochemical; settings: Zn(NO3)2; light scattering at 400 nm; aggregates dissolve on adding EDTA
From the text: Zn^++ ion binding with alloferon 1 (A1) and its homologs was studied by the method described [Shi Y., Beger R. D., Berg J. M. Metal binding properties of single amino acid deletion mutants of zinc finger peptides: studies using cobalt(II) as a spectroscopic prob. Biophys. J., 1993, Vol. 64, p. 749-753]. Zn^++ ion binding with A1 peptide was studied by the light-scattering method using ISS, Campaign, IL fluorimeter at 400 nm and excitation light 398 nm.
For analysis conditions refer to Shi Y. et al. (1993)
A—(open circles) A1 and Zn(N03)2. interaction Excess molar quantity of Zn^++ ion comparing to peptide was 1:10. Firm line—peptide enrichment with Zn^+ ion. Ground peptide mass changed into aggregates with complete enrichment. EDTA was added to aggregates. Subsequent to addition of EDTA the complex quickly dissociated and peptide (alloferon) changed to soluble phase.

[2] = test system: Type I interferons; test: Type I interferons induction; settings: FIG. 6
From the text: Type I interferons induction was studied by the previously published method [F. I. Yershov., O. I. Kiselev. Interferons and their inducers (from the molecule to the drug) M.: Publ. House. Geotar—Media, 2005-P. 356, Chernysh et al. 2002].

[3] = test system: A/Aichi/2/68 (H3N2) flu strain; assay type: in vivo, white mice

| Compound | diameter of polydisperse nanoparticles formed on peptide aggregation with Zn^++ [1] | interferon induction activity [2] | protective effect (in words) ([3]; mouse, in vivo) | protective effect ([3]; […], mice observed 15 days) |
| --- | --- | --- | --- | --- |
| HGVSGHGQHGVHG [Alloferon A1, nonmodified base peptide] | 50-60 nm | quite high level of interferon induction ability | comparable to efficiency of the protective effect of reference drug Remantadin | – |
| CC(N)C12CC3CC(CC(C3)C1)C2 (stereo not shown) [Remantadin] | – | – | – | 80-87% |
